# Laboratory results as given in US20020072485A1, “Prophylactic use of N-methyl-D-aspartate (NMDA) antagonists” (priority 2000, published 2002).
# Columns and labels:
# [1] = target: NMDA receptors comprised of NR1/NR2B subunits (Homo sapiens, UniProt Q05586+Q13224); conditions: selectivity between NMDA receptor subtypes; cited from earlier work
# [2] = tested on: animal models of pain perception; conditions: literature (Bernardi 1996; Taniguchi 1997); cited from earlier work
# [3] = tested on: static and dynamic allodynia in rats (paw incision model); experiment: Paw incision model for surgical pain, pre-surgery administration; format: in vivo, rat; conditions: for PWL (paw withdrawal latency) compared to vehicle / PWT (paw withdrawal threshold) compared to vehicle: 72 hours, pre-surgical 10 and 30 mg/kg CP-101,606, pregabalin 30 mg/kg s.c.
# Excerpt: (§1) Basically, in this animal model, an incision is made in the hind paw of the rats, which induces a reproducible and quantifiable mechanical hyperalgesia in the rats lasting several days. Rats are anesthetized, and the plantar surface of the right hind paw of each rat is incised through the skin and fascia. The wound is then closed, for example with sutures, and allowed to heal. The rats are placed into wire mesh bottom cages, allowing access to the underside of their paws. After habituation, tactile allodynia (or “static allodynia”) can be evaluated by touching the right hind paw plantar surface with von Frey hairs in ascending order of force (measured in grams) until a paw-withdrawal response (paw withdrawal threshold or “PWT”) is elicited. Dynamic allodynia can be evaluated by stoking the plantar surface of the right hind paw and measuring (in seconds) the amount of time it takes for a rat to withdraw its paw (paw withdrawal latency or “PWL”).
# In the pre-surgery administration assay, a PWT and PWL baseline is measured prior to drug administration and incision. The rats are then given drug (CP-101,606, at separate doses of 3, 10 or 30 mg/kg s.c.) or are given pregabalin (30 mg/kg s.c., as a positive control)), or vehicle (s.c.). The right hind paw each rat is then incised as described above. Measurements are then taken periodically, as described above.
# [4] = tested on: static and dynamic allodynia in rats (paw incision model); experiment: Paw incision model for surgical pain, post-surgery administration; format: in vivo, rat
# Excerpt: as §1
# CP-101,606 was also tested post-surgically using the paw incision model, basically as described above. However, in this assay, rats are administered CP-101,606 (3, 10, or 30 mg/kg, s.c.), pregabalin (30 mg/kg, s.c.), or vehicle (s.c.) post-incision. A baseline is measured before incision and after incision, prior to drug. […] CP-101,606 produced a full reversal of static allodynia and a partial (approximately 40%) reversal of the dynamic subtype.
# [5] = pre-surgery administration, 30 mg/kg s.c.
# [6] = pre-surgery administration, s.c.
# [7] = post-incision administration, 30 mg/kg s.c.
# [8] = post-incision administration, s.c.
# Sequence of NMDA receptors comprised of NR1/NR2B subunits (Q13224 27-1484, other chains not shown): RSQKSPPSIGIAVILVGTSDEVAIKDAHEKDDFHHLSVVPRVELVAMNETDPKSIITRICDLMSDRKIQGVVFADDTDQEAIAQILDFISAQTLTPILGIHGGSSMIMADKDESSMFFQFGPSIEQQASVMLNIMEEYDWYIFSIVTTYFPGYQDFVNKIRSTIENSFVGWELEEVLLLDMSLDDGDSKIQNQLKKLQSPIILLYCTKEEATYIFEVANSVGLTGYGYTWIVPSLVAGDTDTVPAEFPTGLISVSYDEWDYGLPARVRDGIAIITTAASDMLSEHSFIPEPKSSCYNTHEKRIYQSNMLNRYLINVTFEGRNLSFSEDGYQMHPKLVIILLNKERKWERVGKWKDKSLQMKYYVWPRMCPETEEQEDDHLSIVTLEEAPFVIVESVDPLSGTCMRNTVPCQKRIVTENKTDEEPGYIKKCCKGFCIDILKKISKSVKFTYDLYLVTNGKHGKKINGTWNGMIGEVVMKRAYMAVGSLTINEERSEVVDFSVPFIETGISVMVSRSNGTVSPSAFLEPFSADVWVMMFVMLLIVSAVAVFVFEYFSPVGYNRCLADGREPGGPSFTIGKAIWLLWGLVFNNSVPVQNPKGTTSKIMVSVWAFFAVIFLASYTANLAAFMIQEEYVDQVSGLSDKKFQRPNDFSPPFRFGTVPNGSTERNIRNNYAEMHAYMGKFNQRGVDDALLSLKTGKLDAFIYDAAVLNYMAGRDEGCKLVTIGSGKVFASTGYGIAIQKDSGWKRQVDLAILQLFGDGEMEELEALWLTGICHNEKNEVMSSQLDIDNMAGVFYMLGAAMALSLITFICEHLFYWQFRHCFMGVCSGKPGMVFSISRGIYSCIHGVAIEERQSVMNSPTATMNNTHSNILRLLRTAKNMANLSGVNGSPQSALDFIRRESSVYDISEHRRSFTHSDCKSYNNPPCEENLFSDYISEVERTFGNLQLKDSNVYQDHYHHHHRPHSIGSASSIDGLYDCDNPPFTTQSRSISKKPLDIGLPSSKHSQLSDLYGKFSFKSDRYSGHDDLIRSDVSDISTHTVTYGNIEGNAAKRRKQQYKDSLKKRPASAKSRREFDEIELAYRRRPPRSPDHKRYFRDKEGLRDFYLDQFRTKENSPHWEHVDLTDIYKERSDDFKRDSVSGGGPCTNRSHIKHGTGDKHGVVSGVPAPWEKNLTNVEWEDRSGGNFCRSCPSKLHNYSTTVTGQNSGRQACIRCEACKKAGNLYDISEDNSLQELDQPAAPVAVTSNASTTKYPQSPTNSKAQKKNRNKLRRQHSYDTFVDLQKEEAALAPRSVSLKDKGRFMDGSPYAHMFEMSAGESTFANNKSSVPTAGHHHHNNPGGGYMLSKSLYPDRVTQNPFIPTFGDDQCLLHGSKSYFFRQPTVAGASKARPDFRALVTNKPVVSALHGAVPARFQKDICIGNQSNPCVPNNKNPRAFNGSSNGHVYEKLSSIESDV
structure (smiles),measurement,setting,value
"CC(C(O)c1ccc(O)cc1)N1CCC(Cc2ccccc2)CC1 (stereo not drawn) [Ifenprodil, ifenprodil]","blockade of ion current, NR1/NR2B compared to NR1/NR2A, NR2C, or NR2D subunits",[1],more potent and efficacious
same,analgesic activity,[2],significant analgesic activity
"CC(C)C[C@H](CN)CC(=O)O [pregabalin, reference compound]",PWL (paw withdrawal latency) compared to vehicle,[3],longer
same,PWT (paw withdrawal threshold) compared to vehicle,[3],higher
Oc1ccc2c(c1)OC[C@@H](N1CCC(O)(c3ccc(F)cc3)CC1)[C@H]2O (relative stereo),melting point,,159 to 160 °C
"C[C@@H]([C@@H](O)c1ccc(O)cc1)N1CCC(O)(c2ccccc2)CC1 [CP-101,606, (+)-(1S, 2S)-1-(4-hydroxy-phenyl)-2-(4-hydroxy-4-phenylpiperidino)-1-propanol]",PWL (paw withdrawal latency) compared to vehicle,[3],longer
same,PWT (paw withdrawal threshold) compared to vehicle,[3],higher
same,duration of antiallodynic action,[3]; following pre-surgical administration,at least 48 hours
same,latest time at which a preventive effect was seen,"[3]; post surgery, pre-surgical administration",72 h
same,"time of peak effect, dynamic allodynia",[3]; [5],two
same,"time of peak effect, static allodynia",[3]; [5],two
same,effect on static and dynamic subtypes of allodynia,"[3]; pre-surgery administration, 3, 10 or 30 mg/kg s.c., rats",dose-dependently blocked both static and dynamic subtypes of allodynia
same,blockade of dynamic allodynia,[3]; [6],near full blockade
same,blockade of static allodynia,[3]; [6],full blockade
same,"MED (minimum effective dosage), dynamic allodynia","[3]; pre-surgery administration, s.c., PWL",10 mg/kg
same,"MED (minimum effective dosage), static allodynia","[3]; pre-surgery administration, s.c., PWT (von Frey hairs)",10 mg/kg
same,"duration of effect, dynamic allodynia",[4]; [7],two
same,"duration of effect, static allodynia",[4]; [7],three
same,"time of peak effect, dynamic allodynia",[4]; [7],two
same,effect on static and dynamic subtypes of allodynia,"[4]; post-incision administration, 3, 10 or 30 mg/kg s.c., rats",dose-dependently diminished both static and dynamic subtypes of allodynia
same,"MED, dynamic allodynia",[4]; [8],30 mg/kg
same,"MED, static allodynia",[4]; [8],10 mg/kg
same,reversal of static allodynia,[4]; [8],full reversal
same,reversal of dynamic allodynia,"[4]; post-incision administration, s.c., partial reversal",approximately 40%
